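Growth conditions: 96-well plates. Treatment: test compound, 48 hours, 5 concentrations. Analysis: linear interpolation between bracketing concentrations; unreached endpoints set to highest concentration. Here, GI50 denotes the concentration required for 50% inhibition of growth. TGI denotes the concentration required for complete inhibition of growth.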
Assays:
Assay in all cases: DTP human tumour cell line panel, 48 h
[1] = test system: MDA-MB-435
[2] = test system: TK-10 renal
[3] = test system: KM12 colon
[4] = test system: SNB-19 CNS
[5] = test system: A498 renal
[6] = test system: M14 melanoma
[7] = test system: HCC-2998 colon
[8] = test system: NCI/ADR-RES ovarian
[9] = test system: HCT-116 colon
[10] = test system: OVCAR-4 ovarian
[11] = test system: CCRF-CEM leukemia
[12] = test system: OVCAR-5 ovarian
[13] = test system: OVCAR-3 ovarian
[14] = test system: HOP-62 NSCLC
[15] = test system: UACC-257 melanoma
[16] = test system: HS 578T breast
[17] = test system: SK-OV-3 ovarian
[18] = test system: CAKI-1 renal
[19] = test system: SF-268 CNS
[20] = test system: HT29 colon
[21] = test system: NCI-H522 lung
[22] = test system: RXF 393 renal
[23] = test system: SF-539 CNS
[24] = test system: UACC-62 melanoma
[25] = test system: MALME-3M melanoma
[26] = test system: HL-60(TB) leukemia
[27] = test system: EKVX NSCLC
[28] = test system: K-562 leukemia
[29] = test system: ACHN renal
[30] = test system: A549 NSCLC
[31] = test system: COLO 205 colon
[32] = test system: NCI-H226 lung
[33] = test system: SF-295 CNS
[34] = test system: MOLT-4 leukemia
[35] = test system: BT-549 breast
[36] = test system: PC-3 prostate
[37] = test system: SK-MEL-2 melanoma
[38] = test system: SN12C renal
[39] = test system: SK-MEL-28 melanoma
[40] = test system: MDA-MB-231 breast
[41] = test system: OVCAR-8 ovarian
[42] = test system: UO-31 renal
[43] = test system: T-47D breast
[44] = test system: SNB-75 CNS
[45] = test system: SK-MEL-5 melanoma
[46] = test system: IGROV1 ovarian
[47] = test system: RPMI-8226 leukemia
[48] = test system: LOX IMVI melanoma
[49] = test system: 786-0 renal
[50] = test system: HOP-92 NSCLC
[51] = test system: SW-620 colon
[52] = test system: NCI-H23 lung
[53] = test system: DU-145 prostate
[54] = test system: MCF7 breast
[55] = test system: HCT-15 colon
[56] = test system: NCI-H460 lung
[57] = test system: U251 CNS

## Clc1ccc(N2CCN(CCCN3CCN(c4cccc(Cl)c4)CC3)CC2)cc1
[1]
  GI50: 3.36 µM
  TGI: 16.7 µM
[2]
  GI50: 5.32 µM
  TGI: 21.3 µM
[3]
  GI50: 3.45 µM
  TGI: 15.6 µM
[4]
  GI50: 11.3 µM
  TGI: 24.7 µM
[5]
  GI50: 4.61 µM
  TGI: 18.8 µM
[6]
  GI50: 1.57 µM
  TGI: 3.21 µM
[7]
  GI50: 2.65 µM
  TGI: 11.7 µM
[8]
  GI50: 4.6 µM
  TGI: 20.7 µM
[9]
  GI50: 2.45 µM
  TGI: 12.2 µM
[10]
  GI50: 5.77 µM
  TGI: 20.7 µM
[11]
  GI50: 3.8 µM
  TGI: 25.3 µM
[12]
  GI50: 9.12 µM
  TGI: 29.6 µM
[13]
  GI50: 3.44 µM
  TGI: 15.3 µM
[14]
  GI50: 3.97 µM
  TGI: 18.1 µM
[15]
  GI50: 4.33 µM
  TGI: 16.3 µM
[16]
  GI50: 4.82 µM
  TGI: 22 µM
[17]
  GI50: 10.7 µM
  TGI: 23.2 µM
[18]
  GI50: 7.43 µM
  TGI: 25.6 µM
[19]
  GI50: 7.77 µM
  TGI: 21.4 µM
[20]
  GI50: 3.03 µM
  TGI: 13.5 µM
[21]
  GI50: 14.7 µM
  TGI: 34 µM
[22]
  GI50: 6.7 µM
  TGI: 22.4 µM
[23]
  GI50: 3.21 µM
  TGI: 12.4 µM
[24]
  GI50: 2.86 µM
  TGI: 11.3 µM
[25]
  GI50: 2.06 µM
  TGI: 6.15 µM
[26]
  GI50: 2.33 µM
  TGI: 6.7 µM
[27]
  GI50: 4.5 µM
  TGI: 35.9 µM
[28]
  GI50: 1.45 µM
  TGI: 6.08 µM
[29]
  GI50: 7.77 µM
  TGI: 21.5 µM
[30]
  GI50: 8.57 µM
  TGI: 28.4 µM
[31]
  GI50: 1.62 µM
  TGI: 3.35 µM
[32]
  GI50: 6.51 µM
  TGI: 23.3 µM
[33]
  GI50: 3.74 µM
  TGI: 19.1 µM
[34]
  GI50: 2.01 µM
  TGI: 17.4 µM
[35]
  GI50: 3.72 µM
  TGI: 15.6 µM
[36]
  GI50: 3.34 µM
  TGI: 16.4 µM
[37]
  GI50: 14.3 µM
  TGI: 31.5 µM
[38]
  GI50: 7.51 µM
  TGI: 21.6 µM
[39]
  GI50: 2.53 µM
  TGI: 8.27 µM
[40]
  GI50: 4.22 µM
  TGI: 18.6 µM
[41]
  GI50: 10.4 µM
  TGI: 28.1 µM
[42]
  GI50: 3.56 µM
  TGI: 16.2 µM
[43]
  GI50: 1.63 µM
  TGI: 14.3 µM
[44]
  GI50: 2.52 µM
  TGI: 14.8 µM
[45]
  GI50: 1.6 µM
  TGI: 3.46 µM
[46]
  GI50: 8.89 µM
  TGI: 24.6 µM
[47]
  GI50: 1.79 µM
  TGI: 7.84 µM
[48]
  GI50: 2.8 µM
  TGI: 13.8 µM
[49]
  GI50: 4.63 µM
  TGI: 18.5 µM
[50]
  GI50: 0.813 µM
  TGI: 11.4 µM
[51]
  GI50: 3.08 µM
  TGI: 14 µM
[52]
  GI50: 3.33 µM
  TGI: 17.8 µM
[53]
  GI50: 8.14 µM
  TGI: 21.4 µM
[54]
  GI50: 2.92 µM
  TGI: 12.2 µM
[55]
  GI50: 4.9 µM
  TGI: 22.4 µM
[56]
  GI50: 3.78 µM
  TGI: 15.8 µM
[57]
  GI50: 5.45 µM
  TGI: 20.1 µM
